The source of these data is patent US12502393B2, “Dual mode of action soluble guanylate cyclase activators and phosphodiesterase inhibitors and uses thereof” (TOPADUR PHARMA AG, priority 2018, dated 2025).

Each structure is given as a SMILES string. pIC50: −log10 of the molar value. Read-outs that look alike come from different tables or passages of the source.

Series [1] is described as follows: Human plasma protein binding. Conditions: human. It counts as in vitro ADME. On the procedure:
An aliquot of 200 μL of human plasma containing test compound was spiked into donor well (red chamber) of the insert. 350 μL of PBS was spiked into receiver well (white chamber) of the insert.
The samples were matrix equilibrated with opposite matrix (25 μL of plasma/buffer sample was matched with 25 μL of blank buffer/plasma). Matrix matched samples were precipitated with 200 μL of acetonitrile containing internal standard. Samples were vortexed at 1000 rpm for 5 min and centrifuged at 4000 rpm for 10 min. Supernatant was separated, diluted 2 fold with water and analysed in LC-MS/MS. (Table 2).

The test system of series [2] is Human Trabecular Meshwork Cells. The series is described as follows: Cellular cGMP assay in human trabecular meshwork cells. The series is classed as cell-based. Conditions: HTMC, 10 μM Riociguat; for Concentration (nM) for 3-fold or 2-fold* cGMP increase vs Baseline: 3-fold increase (values without asterisk); for Ratio Maximum cGMP increase vs Baseline: 5 mM GSH, incubation 2 h.

The test system of series [3] is Human Pulmonary Artery Smooth Muscle Cells (hPASMC). The experiment in a line: cGMP in human pulmonary artery smooth muscle cells (hPASMC). The series is classed as cell-based. The following applies: 30 min incubation, FIG. 4. On the procedure: Human Pulmonary Artery Smooth Muscle Cells (hPASMC) were purchased from Clonetics™ Lonza (Lonza, reference number CC-2581) and cultured in Clonetics™ smooth muscle growth medium (Clonetics™ SmGM™-2 with BulletKit™ growth factor supplements (Lonza, reference number CC-3182) at 37° C. in 5% CO2. Culture medium was replaced each 48 hours. Cells were grown in 75 cm^2 culture plates.
48 h before the experiments, cells were trypsinized (Trypsin kit One ReagentPack™ (CC-5034), Lonza) and plated in 96 well plates precoated with collagen I at 10000 cells per well. 24 h before the experiments culture medium was replaced by serum-reduced (0.5% FBS) medium.
Measurements of intracellular cGMP were performed using the Amersham cGMP EIA System (GE Healthcare, RPN226) following the instructions of the manufacturer. The assay has a sensitivity of 2 fmol cGMP per well. Briefly, incubations were terminated by adding Amersham's lysis buffer 1 and cells left for 10 min under agitation to ensure complete lysis. cGMP in samples was then acetylated using triethylamine and acetic anhydride and determined by a competitive ELISA. The ELISA is based on the competition between acetylated cGMP in cell culture lysates and a peroxidase-labelled cGMP conjugate for limited binding sites on a cGMP specific antiserum immobilized on pre-coated 96 well MTP. cGMP was determined based on a standard curve. […]

Series [4] deals with Rat aortic smooth muscle cells. The experiment in a line: Cellular cGMP assay in rat aortic smooth muscle cells. Conditions: 10 μM Riociguat; for Ratio Maximum cGMP increase vs Baseline: 5 mM GSH, incubation 2 h. The series is classed as cell-based. On the procedure: Examples (Test compounds) were characterized for their potency and efficacy to elevate cGMP in cellular systems such as human trabecular meshwork cells (Table 3), human platelets (Table 5) and rat aortic smooth muscle cells (Table 4).
Human trabecular meshwork cells (ABC Biopply AG, Solothurn, Switzerland) or rat aortic smooth muscle cells (Sigma Aldrich AG, Buchs, Switzerland) were plated in a 96 well plate precoated with collagen (Collagen Type I solution from rat tail, Sigma; diluted to 0.1 mg/ml) at 20.000 cells per well and grown in corresponding Trabecular Meshwork (ABC Supply AG) or Smooth Muscle (Sigma AG) Growth medium as provided by the manufacturers. After 18 h medium was exchanged and new medium added supplemented with 5 mM GSH. The next day culture medium was exchanged to DMEM with low glucose supplemented with 5 mM GSH. Cells were pre-incubated with 10 μM Riociguat (soluble guanylate cyclase stimulator; Lucerna-Chem AG, Luzern, Switzerland) for 15 min before test or reference compounds or vehicle was added to a final incubation volume of 100 μl per well. At the end of the incubation time (see below) the reaction was terminated by adding HCl (0.16M), IBMX (Isobutylmethylxanthin) (2 mM) in DMSO (2%) to the culture medium, final concentrations per well are given in brackets. Following a 20 sec on a plate shaker (200 rpm) the plate was immediately frozen at −80° C.
(§1) cGMP was determined by a commercially available ELISA kit (Direct cGMP ELISA kit, Enzo Life Sciences AG, Lauren, Switzerland) with a lower detection limit of 0.08 pmol/ml using the acetylation protocol following manufacturer's instructions. Results are given as the means from at least two independent experiments each in triplicate.
(§2) To study concentration-dependent effects on total cGMP test and reference compounds were investigated from 0.1 nM to 1 μM in half-logarithmic steps with an incubation time of 2 h. To examine the time course the incubation times were (min) 10, 30, 60, 90, 120 at 1 μM of test or reference compound.
(§3) Compounds were diluted from stock solutions in DMSO. The final concentration of DMSO in all wells including the vehicle controls was 0.2% for human trabecular meshwork and rat aortic smooth muscle cells and 0.3% for platelets.
(§4) From time course experiments, the time to half of the maximum cGMP increase with 1 μM of test compound has been extrapolated (t0.5max).

Another series has as its system Human Platelets. The series is described as follows: Total cGMP in human platelets. The series is classed as cell-based. The following applies: for Ratio Maximum cGMP increase vs Baseline: 1 μM riociguat and 100 nM BAY 190954, incubation 2 h; for Concentration (nM) for 3-fold cGMP or 2-fold* increase vs Baseline: 3-fold increase (values without asterisk), 1 μM riociguat, 100 nM BAY 190954. On the procedure: Effects of test and reference compounds on total cGMP in human platelets were investigated as described by Dunkern and Hatzelmann (Cell Signal. 17: 331-9, 2005) with modifications. Briefly, buffy coats (acquired form SRK Blutspende Zurich) were 4-fold diluted in 150 mM sodium chloride solution containing 0.9% sodium citrate and centrifuged at 200 g for 10 min. The resulting platelet-rich plasma was supplemented with a 1/10 volume of ACD solution (85 mM sodium citrate, 111 mM D-glucose, 71 mM citric acid, pH 4.4) and apyrase (Sigma AG) to a final concentration of 2 U/ml. After another centrifugation (1400 g, 10 min) the cellular pellet was resuspended in Ca2+/Mg2+-free Hepes-Tyrode buffer (134 mM NaCl, 12 mM NaHCO3, 2.9 mM KCl, 0.36 mM NaH2PO4, 5 mM HEPES, 5 mM glucose, 0.5% (w/v) bovine serum albumin, pH 7.4) and platelets were counted.
Platelets were used at 9×10^7 cells in 100 μl per well and after adding test and reference compounds the incubation volume was 200 μl per well in Hepes-Tyrode. Experiments in platelets were done in presence of 1 μM riociguat and 100 nM BAY 190954 (PDE2 inhibitor) (Lucerna Chem AG) and test/reference compounds were added after a preincubation time of 15 min. At the end of the incubation time (see below) the reaction was terminated by adding 20 μl of 2N HCl per well. Following a 20 sec on a plate shaker (300 rpm) the plate was left for 15 min and then centrifuged at 1000×g for 5 min. Supernatants were stored at −80° C.
as §1, §2, §3, §4

Series [5] addresses T1, recombinant human (rh) PDE5A (Homo sapiens, UniProt O76074).
T1 construct: GST; purchased SIGMA E9034
The series is described as follows: Phosphodiesterase-5 activity assay (radiometric SPA). The series is classed as biochemical. The following applies: rhPDE5A1, 0.5 μM cGMP, 20 min at 37° C.

In the case of `CCCc1nn(C)c2c(=O)[nH]c(-c3cc(S(=O)(=O)N4CCC([C@@H](O)CO[N+](=O)[O-])CC4)ccc3OCC)nc12` [Compound 1c, (R)-2-(1-((4-ethoxy-3-(1-methyl-7-oxo-3-propyl-6,7-dihydro-1H-pyrazolo[4,3-d]pyrimidin-5-yl)phenyl)sulfonyl)piperidin-4-yl)-2-hydroxyethyl nitrate], the fraction unbound in series [1] (read-out: % Bound in human plasma (converted)) is 0.0118. For the same compound, the fraction unbound in series [1] (read-out: % Unbound in human plasma) worked out at 0.0118. In series [2], the “Concentration (nM) for 3-fold or 2-fold* cGMP increase vs Baseline” value is 25.1 nM and the “Ratio Maximum cGMP increase vs Baseline” value was determined as 61.9. Besides, the “efficacy in increasing cGMP level as compared to the reference inhibitor vardenafil” value in series [3] is “significantly higher efficacy”. Further, in series [4], the “Concentration (nM) for 3-fold cGMP increase vs Baseline” value is given as 1300 nM and the “Ratio Maximum cGMP increase vs Baseline” value amounted to 3.47. In the series on Human Platelets, the “Ratio Maximum cGMP increase vs Baseline” value is 26.1 and the “Concentration (nM) for 3-fold cGMP or 2-fold* increase vs Baseline” value was 33.3 nM. Moreover, in series [5], the pIC50 was 9.00.
For the compound `CCCc1nc(C)c2c(=O)[nH]c(-c3cc(S(=O)(=O)N4CCC([C@@H](O)CO[N+](=O)[O-])CC4)ccc3OCC)nn12` [Compound 2c, (R)-2-(1-((4-ethoxy-3-(5-methyl-4-oxo-7-propyl-3,4-dihydroimidazo[5,1-f][1,2,4]triazin-2-yl)phenyl)sulfonyl)piperidin-4-yl)-2-hydroxyethyl nitrate], in series [2], the “Concentration (nM) for 3-fold or 2-fold* cGMP increase vs Baseline” value is recorded as 10.1 nM and the “Ratio Maximum cGMP increase vs Baseline” value is recorded as 52.1. Besides, in series [4], the “Concentration (nM) for 3-fold cGMP increase vs Baseline” value came out at 729 nM and the “Ratio Maximum cGMP increase vs Baseline” value was 5.93. Also, in the series on Human Platelets, the “Ratio Maximum cGMP increase vs Baseline” value was determined as 105.4 and the “Concentration (nM) for 3-fold cGMP or 2-fold* increase vs Baseline” value worked out at 4.3 nM. Also, in series [5], the pIC50 was 9.85.
Consider `CCCc1nc(C)c2c(=O)[nH]c(-c3cc(S(=O)(=O)N4CCC([C@@H](O)CO)CC4)ccc3OCC)nn12` [Compound 25, (R)-2-(5-((4-(1,2-dihydroxyethyl)piperidin-1-yl)sulfonyl)-2-ethoxyphenyl)-5-methyl-7-propyl imidazo[5,1-f][1,2,4]triazin-4(3H)-one], for which, in series [2], the “Concentration (nM) for 3-fold or 2-fold* cGMP increase vs Baseline” value is 58.5 nM and the “Ratio Maximum cGMP increase vs Baseline” value turned out to be 22.3. Also, in series [4], the “Concentration (nM) for 3-fold cGMP increase vs Baseline” value is given as >10000 nM and the “Ratio Maximum cGMP increase vs Baseline” value amounted to 0.89. Also, in the series with Human Platelets, the “Ratio Maximum cGMP increase vs Baseline” value is listed as 23.3 and the “Concentration (nM) for 3-fold cGMP or 2-fold* increase vs Baseline” value was determined as 5.9 nM. In addition, in series [5], the pIC50 was 10.10.
Consider `CCCc1nn(C)c2c(=O)[nH]c(-c3cc(S(=O)(=O)N4CCC([C@@H](O)CO)CC4)ccc3OCC)nc12` [Compound 4, (R)-5-(5-((4-(1,2-dihydroxyethyl)piperidin-1-yl)sulfonyl)-2-ethoxyphenyl)-1-methyl-3-propyl-1,6-dihydro-7H-pyrazolo[4,3-d]pyrimidin-7-one], for which, in series [2], the “Concentration (nM) for 3-fold or 2-fold* cGMP increase vs Baseline” value stood at 99.8 nM and the “Ratio Maximum cGMP increase vs Baseline” value came to 12.4. In series [4], the “Concentration (nM) for 3-fold cGMP increase vs Baseline” value is >10000 nM and the “Ratio Maximum cGMP increase vs Baseline” value amounted to 1.04. In the series with Human Platelets, the “Ratio Maximum cGMP increase vs Baseline” value was determined as 6.4 and the “Concentration (nM) for 3-fold cGMP or 2-fold* increase vs Baseline” value was 92.6 nM. For the same compound, the pIC50 in series [5] is 8.82.
As for `CCCc1nn(C)c2c(=O)[nH]c(-c3cc(S(=O)(=O)N4CCC([C@H](CO[N+](=O)[O-])O[N+](=O)[O-])CC4)ccc3OCC)nc12` [Compound 1a, (R)-1-(1-((4-ethoxy-3-(1-methyl-7-oxo-3-propyl-6,7-dihydro-1H-pyrazolo[4,3-d]pyrimidin-5-yl)phenyl)sulfonyl)piperidin-4-yl)ethane-1,2-diyl dinitrate], in series [2], the “Concentration (nM) for 3-fold or 2-fold* cGMP increase vs Baseline” value was 26.7 nM and the “Ratio Maximum cGMP increase vs Baseline” value was found to be 55.7. Further, in series [4], the “Concentration (nM) for 3-fold cGMP increase vs Baseline” value is listed as 222 nM and the “Ratio Maximum cGMP increase vs Baseline” value was 4.44. Besides, in the series on Human Platelets, the “Ratio Maximum cGMP increase vs Baseline” value stood at 67.4 and the “Concentration (nM) for 3-fold cGMP or 2-fold* increase vs Baseline” value amounted to 57 nM. Also, in series [5], the pIC50 is 8.30.
